We go through 15 molecules from article PMC6559944 (Journal of medicinal chemistry, 2019).

The conditions of data set [1]: mice, 25 mg/kg PO, feces collected 24 h.
In data set [2] the test system is Nluc-expressing C. parvum. The conditions noted are these: for Efficacy (reduction in oocyst shedding / infection), in words: oral, 5 days, doses of Table 3.
The conditions of data set [3]: mouse, in vivo, 25 mg/kg; for Half Life: po.
For data set [4] the following is noted: rat.
Data set [5] relates to human ether-á-go-go related gene (hERG). As to conditions: cited from earlier work.
In data set [6] the test system is human cell lines.
For data set [7] the following is noted: mouse, in vivo.
For data set [8] the following is noted: mouse, in vivo. The source holds these as a separate data set.
The mark [9] stands for this setting: IFN-γ KO mice, 60 mg/kg QD for 5 days.

Entries after “also recorded” stand apart in the source; their conditions may differ. Read-outs that look alike come from different tables or passages of the source.

`CCOc1ccc2cc(-c3nn(C(C)(C)CO)c(N)c3C(N)=O)cnc2c1` [Compound 19, 5-amino-3-(7-ethoxyquinolin-3-yl)-1-(1-hydroxy-2-methylpropan-2-yl)-1H-pyrazole-4-carboxamide]: in data set [1], the “Fecal concentration from 25 mg/kg dose” value came to 2.9 µM.

For the molecule `CCOc1ccc2cc(-c3nn(C(C)CCO)c(N)c3C(N)=O)ccc2c1` (centres unmarked) [Compound 9, 5-amino-3-(6-ethoxynaphthalen-2-yl)-1-(4-hydroxybutan-2-yl)-1H-pyrazole-4-carboxamide], the Efficacy in words result is listed as “remain a full log above the LLOD” in data set [2] (IFN-γ KO mice, 30 mg/kg BID for 5 days) and “efficacious” in data set [2] (setting [9]). Besides, in data set [2] (IFN-γ KO mice), the “Efficacy (reduction in oocyst shedding / infection), in words” value is reported as “significant reduction in oocyst shedding”.

As for “5-amino-3-(7-cyclopropoxyquinolin-3-yl)-1-(4-hydroxybutan-2-yl)-1H-pyrazole-4-carboxamide [Compound 11]”, the “Efficacy (reduction in oocyst shedding / infection), in words” value in data set [2] (IFN-γ KO mice) is given as “significant reduction in oocyst shedding”. In data set [3], the “Oral Clearance” value turned out to be 0.7 mL/min and the “Half Life” value worked out at 1.42 h.

On to “5-amino-3-(2-cyclopropoxyquinolin-6-yl)-1-(4-hydroxybutan-2-yl)-1H-pyrazole-4-carboxamide [Compound 10]”, for which, in data set [1], the “Fecal concentration from 25 mg/kg dose” value came to 4.5 µM. In data set [3], the “Oral Clearance” value came to 0.1 mL/min and the “Half Life” value amounted to 2.047 h.

For the molecule `CC(CCO)n1nc(-c2ccc3cc(OC4CC4)ccc3c2)c(C(N)=O)c1N` (centres unmarked) [Compound 12, 5-amino-3-(6-cyclopropoxynaphthalen-2-yl)-1-(4-hydroxybutan-2-yl)-1H-pyrazole-4-carboxamide], the “Fecal concentration from 25 mg/kg dose” value in data set [1] was found to be 10.3 µM. Besides, the “Liabilities: toxicity during efficacy study” value in data set [2] (IFN-γ KO mice efficacy study) is “Signs of toxicity during efficacy”.

`CCOc1ccc2cc(-c3nn(C(C)(C)CO)c(N)c3C(N)=O)ccc2n1` [Compound 20, 5-amino-3-(2-ethoxyquinolin-6-yl)-1-(1-hydroxy-2-methylpropan-2-yl)-1H-pyrazole-4-carboxamide]: the “Fecal concentration from 25 mg/kg dose” value in data set [1] was 0.41 µM. For the same molecule, the Efficacy in words result in data set [2] (IFN-γ KO mice, 10 mg/kg BID) is “failed to provide a significant reduction from initial infection levels”; in data set [2] (IFN-γ KO mice, 20 mg/kg BID) it was “failed to provide a significant reduction from initial infection levels”; in data set [2] (setting [9]), “efficacious to the LLOD”. In data set [2] (IFN-γ KO mice), the “Efficacy (reduction in oocyst shedding / infection), in words” value is recorded as “significant reduction in oocyst shedding”.

Consider `CC(C)(CO)n1nc(-c2ccc3cc(OC4CC4)ccc3c2)c(C(N)=O)c1N` [Compound 24, 5-amino-3-(6-cyclopropoxynaphthalen-2-yl)-1-(1-hydroxy-2-methylpropan-2-yl)-1H-pyrazole-4-carboxamide], for which, in data set [1], the “Fecal concentration from 25 mg/kg dose” value was 3.5 µM. Moreover, the “Liabilities: in vivo cardiovascular” value in data set [4] is reported as “In vivo cardiovascular liabilities (data not shown)”. Further, in data set [2] (IFN-γ KO mice), the “Efficacy (reduction in oocyst shedding / infection), in words” value is “significant reduction in oocyst shedding”.

As to `CCOc1ccc2cc(-c3nn(CC(C)(C)CO)c(N)c3C(N)=O)ccc2c1` [Compound 3, 5-amino-3-(6-ethoxynaphthalen-2-yl)-1-(3-hydroxy-2,2-dimethylpropyl)-1H-pyraz-+ole-4-carboxamide], the “Fecal concentration from 25 mg/kg dose” value in data set [1] came to 7.6 µM. For the same molecule, the “Efficacy (reduction in oocyst shedding / infection), in words” value in data set [2] (IFN-γ KO mice) was “failed to reduce infection; also recorded: Failed efficacy, low c-Src IC50”.

Take `CCOc1ccc2cc(-c3nn(CC4CC4)c(N)c3C(N)=O)ccc2c1` [Compound 27, 5-amino-1-(cyclopropylmethyl)-3-(6-ethoxynaphthalen-2-yl)-1H-pyrazole-4-carboxamide]: the “Fecal concentration from 25 mg/kg dose” value in data set [1] came out at 54 µM. The “Efficacy (reduction in oocyst shedding / infection), in words” value in data set [2] (IFN-γ KO mice) is “Failed efficacy”.

As to `CCOc1ccc2cc(-c3nn(CC4CCN(C)CC4)c4ncnc(N)c34)ccc2c1` [BKI 1294], the “hERG activity in vitro” value in data set [5] is given as “has shown activity against the human ether-á-go-go related gene (hERG) in vitro”.

`CCOc1ccc2cc(-c3nn(C(C)CCO)c(N)c3C(N)=O)cnc2c1` (centres unmarked) [Compound 7, 5-amino-3-(7-ethoxyquinolin-3-yl)-1-(4-hydroxybutan-2-yl)-1H-pyrazole-4-carboxamide]: the “Fecal concentration from 25 mg/kg dose” value in data set [1] stood at 1.1 µM. Besides, the “Efficacy (reduction in oocyst shedding / infection), in words” value in data set [2] (IFN-γ KO mice) is given as “significant reduction in oocyst shedding”.

For the molecule `CCOc1ccc2cc(-c3nn(C(C)(C)CCO)c(N)c3C(N)=O)ccc2c1` [Compound 15, 5-amino-3-(6-ethoxynaphthalen-2-yl)-1-(4-hydroxy-2-methylbutan-2-yl)-1H-pyrazole-4-carboxamide], in data set [6], the “Toxicity to human cell lines” value is recorded as “not toxic to a variety of human cell lines”. The Efficacy in words result in data set [2] (IFN-γ KO mice, 5 mg/kg BID for 5 days) was “failed to provide an efficacious result”; in data set [2] (IFN-γ KO mice, 15 mg/kg BID for 5 days), “failed to provide an efficacious result”; in data set [2] (IFN-γ KO mice, 30 mg/kg BID for 5 days, 30 mg/kg), “efficacious; also recorded: reductions to below the LLOD”; in data set [2] (setting [9]), “failed to provide an efficacious result”; in data set [2] (IFN-γ KO mice, 120 mg/kg QD for 5 days), “reductions to below the LLOD”. In data set [2] (IFN-γ KO mice, 60 mg/kg BID for 5 days), the “Log reduction (to below the LLOD)” value turned out to be 4 log. The “Efficacy (reduction in oocyst shedding / infection), in words” value in data set [2] (IFN-γ KO mice) is “significant reduction in oocyst shedding”. In data set [7], the “CBC and serum chemistry results” value is recorded as “within the normal range”. In addition, in data set [7], the “Histological analysis of all major organs” value is recorded as “no abnormalities”. Besides, the “Observable signs of toxicity” value in data set [7] (150 mg/kg) was “Neither dose concentration showed any observable signs of toxicity”.

Turning to `CCOc1ccc2cc(-c3nn(C(C)(C)C)c(N)c3C(N)=O)cnc2c1` [BKI 1517], the “hERG inhibition signal in vitro” value in data set [5] was “did not have significant in vitro hERG inhibition signal”.

As for `CCOc1ccc2cc(-c3nn(C(C)(C)CO)c(N)c3C(N)=O)ccc2c1` [Compound 21, 5-amino-3-(6-ethoxynaphthalen-2-yl)-1-(1-hydroxy-2-methylpropan-2-yl)-1H-pyrazole-4-carboxamide], in data set [1], the “Fecal concentration from 25 mg/kg dose” value turned out to be 7.1 µM. The “Efficacy (reduction in oocyst shedding / infection), in words” value in data set [2] (IFN-γ KO mice) was “failed to reduce infection; also recorded: Failed efficacy”.

On to `CC(C)(C)n1nc(-c2ccc3cc(OC4CC4)ccc3c2)c(C(N)=O)c1N` [Compound 25, 5-amino-1-(tert-butyl)-3-(6-cyclopropoxynaphthalen-2-yl)-1H-pyrazole-4-carboxamide], for which, in data set [1], the “Fecal concentration from 25 mg/kg dose” value stood at 0.42 µM. In addition, the Efficacy in words result in data set [2] (IFN-γ KO mice, 15 mg/kg QD for 5 days) is reported as “failed to reduce infections from their initial levels”; in data set [2] (IFN-γ KO mice, 30 mg/kg QD for 5 days), “reduced infection to below the LLOD”; in data set [2] (setting [9]), “efficacious”. For the same molecule, in data set [2] (IFN-γ KO mice), the “Efficacy (reduction in oocyst shedding / infection), in words” value was “efficacious”. For the same molecule, the “Plasma Concentration” value in data set [8] (100 mg/kg) turned out to be 19.9 ± 5.4 µM; in data set [8] (100 mg/kg, 2 h), 49.2 ± 4.7 µM; in data set [8] (250 mg/kg), 36.1 ± 16.7 µM. Also, the “CBC and serum chemistry results” value in data set [7] is “within the normal range”. Moreover, the “Histological analysis of all major organs” value in data set [7] is listed as “no abnormalities”. Further, the “Observable signs of toxicity” value was “No signs of toxicity were observed” in data set [7] (100 mg/kg) and “Minor signs of toxicity” in data set [7] (250 mg/kg).
